Structures are written as SMILES. Where only a bound is given, the exact number is not on record here.

One may read the EC50 as the concentration that produces a half-maximal response.

The test system of one assay is Dengue-2 (Strain New Guinea C). In words: Viral yield assay in Vero cells. The format is cell-based. The settings on record: Dengue virus, Vero, 48 h, read-out: Activity (anti-dengue 2 viral activity, EC50 class). As for the experimental part: Compounds that were active in the primary screen were tested for activity in viral yield assays. […] Vero cells in 12-well plates were infected with dengue-2 virus at a multiplicity of infection (MOI) of 0.1, treated with compound (or DMSO as a control), incubated at 37° C., harvested 48 hours post infection and titered on Vero cells as described above. The EC50 was calculated through ExcelFit. Activities against other serotypes of dengue virus were determined in a similar way.
Take `Cc1ccc2sc(-c3ccc(NC(=O)c4ccccc4Cl)cc3)nc2c1` [Compound 49, 2-Chloro-N-[4-(5-methyl-benzothiazol-2-yl)-phenyl]-benzamide]: the EC50 is over 25 µM.

The assay is the same for the next values; noted with them: Dengue virus; Vero cells, MOI 0.1, harvested 48 hours post infection; read-out: Activity (anti-dengue 2 viral activity, EC50 class).
Turning to `O=C(Nc1ccc(-c2nc3ccccc3s2)c(O)c1)c1ccc(F)cc1` [Compound 22, N-(4-Benzothiazol-2-yl-3-hydroxy-phenyl)-4-fluoro-benzamide], the EC50 is 10 to 25 µM. For `Cc1ccccc1C(=O)Nc1ccc(-c2nc3ccccc3s2)c(O)c1` [Compound 23, N-(4-Benzothiazol-2-yl-3-hydroxy-phenyl)-2-methyl-benzamide], the EC50 was in the range of 10 to 25 µM.

As for `O=C(Nc1ccc(-c2nc3ccccc3s2)c(O)c1)c1cccc(F)c1` [Compound 24, N-(4-Benzothiazol-2-yl-3-hydroxy-phenyl)-3-fluoro-benzamide], the EC50 was in the range of 10 to 25 µM. The same measure, in the same setting: the result for `CCOc1ccc(C(=O)Nc2cccc(-c3nc4ccccc4s3)c2C)cc1[N+](=O)O` [Compound 25, N-(3-Benzothiazol-2-yl-2-methyl-phenyl)-4-ethoxy-3-nitro-benzamide] reads 10 to 25 µM.

For the compound `Cc1ccccc1C(=O)Nc1ccc(-c2nc3ccccc3s2)cc1` [Compound 26, N-(4-Benzothiazol-2-yl-phenyl)-2-methyl-benzamide], the EC50 was in the range of 10 to 25 µM.

As for `COc1ccc(C(=O)Nc2ccc(-c3nc4ccccc4s3)c(O)c2)cc1OC` [Compound 27, N-(4-Benzothiazol-2-yl-3-hydroxy-phenyl)-3,4-dimethoxy-benzamide], the EC50 was 10 to 25 µM. Still for that read-out and setting: next, `COc1ccc(Br)cc1C(=O)Nc1ccc(-c2nc3ccccc3s2)cc1` [Compound 28, N-(4-Benzothiazol-2-yl-phenyl)-5-bromo-2-methoxy-benzamide]: 10 to 25 µM.

As for `Cc1ccc2nc(-c3ccc(NC(=O)c4ccc(CN5CCOCC5)cc4)cc3)sc2c1` [Compound 29, N-[4-(6-Methyl-benzothiazol-2-yl)-phenyl]-4-morpholin-4-ylmethyl-benzamide], the EC50 fell in the range of 10 to 25 µM. On the same count and under the same terms, the result for `CC(=O)Oc1cccc(C(=O)Nc2ccc(-c3nc4ccccc4s3)cc2)c1` [Compound 30, Acetic acid 3-(4-benzothiazol-2-yl-phenylcarbamoyl)-phenyl ester] reads 10 to 25 µM; that for `COc1ccc(Cl)cc1C(=O)Nc1ccc(-c2nc3ccccc3s2)cc1` [Compound 31, N-(4-Benzothiazol-2-yl-phenyl)-5-chloro-2-methoxy-benzamide], 10 to 25 µM; that for `COc1ccc(C(=O)Nc2ccc(Cl)c(-c3nc4ccccc4s3)c2)cc1OC` [Compound 32, N-(3-Benzothiazol-2-yl-4-chloro-phenyl)-3,4-dimethoxy-benzamide], 10 to 25 µM.

`Cc1ccc(C(=O)Nc2cccc(-c3nc4ccccc4s3)c2)c(Cl)c1` [Compound 33, N-(3-Benzothiazol-2-yl-phenyl)-2-chloro-4-methyl-benzamide]: the EC50 fell in the range of 10 to 25 µM. With `O=C(Nc1ccccc1-c1nc2ccccc2s1)c1ccccc1[N+](=O)[O-]` [Compound 34, N-(2-Benzothiazol-2-yl-phenyl)-2-nitro-benzamide], the EC50 lay within 10 to 25 µM. Still for that read-out and setting: next, `O=C(Nc1ccc(-c2nc3ccccc3s2)cc1)c1c(F)c(F)c(F)c(F)c1F` [Compound 36, N-(4-Benzothiazol-2-yl-phenyl)-2,3,4,5,6-pentafluoro-benzamide]: 10 to 25 µM; `CCCC(=O)Nc1ccc(C(=O)Nc2ccc(-c3nc4ccc(C)cc4s3)cc2)cc1` [Compound 37, 4-Butyrylamino-N-[4-(6-methyl-benzothiazol-2-yl)-phenyl]-benzamide]: 10 to 25 µM; `Cc1cc(C)cc(C(=O)Nc2ccc(-c3nc4ccccc4s3)cc2C)c1` [Compound 38, N-(4-Benzothiazol-2-yl-2-methyl-phenyl)-3,5-dimethyl-benzamide]: 10 to 25 µM. In the case of `Cc1cccc(C(=O)Nc2ccc(-c3nc4ccccc4s3)c(Cl)c2)c1` [Compound 39, N-(4-Benzothiazol-2-yl-3-chloro-phenyl)-3-methyl-benzamide], the EC50 was 10 to 25 µM. Still for that read-out and setting: the result for `Cc1ccc2nc(-c3ccc(NC(=O)c4ccc(S(=O)(=O)N5CCc6ccccc65)cc4)cc3)sc2c1` [Compound 41, 4-(2,3-Dihydro-indole-1-sulfonyl)-N-[4-(6-methyl-benzothiazol-2-yl)-phenyl]-benzamide] reads over 25 µM. The same measure, in the same setting: the result for `Cc1ccc2sc(-c3ccc(NC(=O)c4ccc(Cl)cc4)cc3)nc2c1` [Compound 42, 4-Chloro-N-[4-(5-methyl-benzothiazol-2-yl)-phenyl]-benzamide] reads over 25 µM; that for `Cc1ccc(-c2nc3ccccc3s2)cc1NC(=O)c1cccc(I)c1` [Compound 43, N-(5-Benzothiazol-2-yl-2-methyl-phenyl)-3-iodo-benzamide], over 25 µM.

As to `O=C(Nc1ccc(-c2nc3ccccc3s2)cc1)c1cc(I)ccc1I` [Compound 44, N-(4-Benzothiazol-2-yl-phenyl)-2,5-diiodo-benzamide], the EC50 is over 25 µM. The same measure, in the same setting: the result for `O=C(Nc1cccc(-c2nc3ccccc3s2)c1)c1cc(I)ccc1I` [Compound 45, N-(3-Benzothiazol-2-yl-phenyl)-2,5-diiodo-benzamide] reads over 25 µM. On the same count and under the same terms, the result for `CCOC(=O)N1CCN(S(=O)(=O)c2ccc(C(=O)Nc3cccc(-c4nc5ccccc5s4)c3)cc2)CC1` [Compound 46, 4-[4-(3-Benzothiazol-2-yl-phenylcarbamoyl)-benzenesulfonyl]-piperazine-1-carboxylic acid ethyl ester] reads over 25 µM. On the same count and under the same terms, next, `CCOC(=O)N1CCN(S(=O)(=O)c2ccc(C(=O)Nc3ccccc3-c3nc4ccccc4s3)cc2)CC1` [Compound 47, 4-[4-(2-Benzothiazol-2-yl-phenylcarbamoyl)-benzenesulfonyl]-piperazine-1-carboxylic acid ethyl ester]: over 25 µM; `COc1cc(C(=O)Nc2ccc(-c3nc4ccccc4s3)cc2)cc(OC)c1OC` [Compound 48, N-(4-Benzothiazol-2-yl-phenyl)-3,4,5-trimethoxy-benzamide]: over 25 µM. In the case of `Cc1ccc(-c2nc3ccccc3s2)cc1NC(=O)c1ccc(F)cc1` [Compound 50, N-(5-Benzothiazol-2-yl-2-methyl-phenyl)-4-fluoro-benzamide], the EC50 is over 25 µM. Still for that read-out and setting: the result for `COc1cc(C(=O)Nc2cc(-c3nc4ccccc4s3)ccc2C)cc(OC)c1OC` [Compound 51, N-(5-Benzothiazol-2-yl-2-methyl-phenyl)-3,4,5-trimethoxy-benzamide] reads over 25 µM. Same read-out and setting: the result for `COc1ccccc1C(=O)Nc1cc(-c2nc3ccccc3s2)ccc1C` [Compound 52, N-(5-Benzothiazol-2-yl-2-methyl-phenyl)-2-methoxy-benzamide] reads over 25 µM; that for `O=C(Nc1ccc(O)c(-c2nc3ccccc3s2)c1)c1ccc([N+](=O)[O-])cc1` [Compound 53, N-(3-Benzothiazol-2-yl-4-hydroxy-phenyl)-4-nitro-benzamide], over 25 µM; that for `O=C(Nc1ccc(-c2nc3ccccc3s2)c(O)c1)c1ccccc1F` [Compound 54, N-(4-Benzothiazol-2-yl-3-hydroxy-phenyl)-2-fluoro-benzamide], over 25 µM. For `Cc1ccccc1C(=O)Nc1ccc(O)c(-c2nc3ccccc3s2)c1` [Compound 55, N-(3-Benzothiazol-2-yl-4-hydroxy-phenyl)-2-methyl-benzamide], the concentration for a half-maximal effect (EC50) was over 25 µM. As to `O=C(Nc1ccc(O)c(-c2nc3ccccc3s2)c1)c1ccccc1` [Compound 56, N-(3-Benzothiazol-2-yl-4-hydroxy-phenyl)-benzamide], the EC50 is over 25 µM. On the same count and under the same terms, the result for `O=C(Nc1ccc(O)c(-c2nc3ccccc3s2)c1)c1ccccc1F` [Compound 57, N-(3-Benzothiazol-2-yl-4-hydroxy-phenyl)-2-fluoro-benzamide] reads over 25 µM; that for `COc1cccc(C(=O)Nc2ccc(O)c(-c3nc4ccccc4s3)c2)c1` [Compound 58, N-(3-Benzothiazol-2-yl-4-hydroxy-phenyl)-3-methoxy-benzamide], over 25 µM; that for `O=C(Nc1ccc(-c2nc3ccccc3s2)c(O)c1)c1ccccc1` [Compound 59, N-(4-Benzothiazol-2-yl-3-hydroxy-phenyl)-benzamide], over 25 µM. On the same count and under the same terms, the result for `COc1ccc(C(=O)Nc2ccc(-c3nc4ccccc4s3)c(O)c2)cc1[N+](=O)[O-]` [Compound 60, N-(4-Benzothiazol-2-yl-3-hydroxy-phenyl)-4-methoxy-3-nitro-benzamide] reads over 25 µM; that for `O=C(Nc1ccc(O)c(-c2nc3ccccc3s2)c1)c1ccc(F)cc1` [Compound 61, N-(3-Benzothiazol-2-yl-4-hydroxy-phenyl)-4-fluoro-benzamide], over 25 µM. As for `O=C(Nc1ccc(O)c(-c2nc3ccccc3s2)c1)c1cccc(F)c1` [Compound 62, N-(3-Benzothiazol-2-yl-hydroxy-phenyl)-3-fluoro-benzamide], the EC50 was over 25 µM. Same read-out and setting: the result for `Cc1c(NC(=O)c2cc([N+](=O)[O-])ccc2Cl)cccc1-c1nc2ccccc2s1` [Compound 63, N-(3-Benzothiazol-2-yl-2-methyl-phenyl)-2-chloro-5-nitro-benzamide] reads over 25 µM; that for `COc1ccc(C(=O)Nc2cccc(-c3nc4ccccc4s3)c2C)cc1[N+](=O)O` [Compound 64, N-(3-Benzothiazol-2-yl-2-methyl-phenyl)-4-methoxy-3-nitro-benzamide], over 25 µM. As to `Cc1c(NC(=O)c2ccc([N+](=O)[O-])cc2)cccc1-c1nc2ccccc2s1` [Compound 65, N-(3-Benzothiazol-2-yl-2-methyl-phenyl)-4-nitro-benzamide], the 50% effective concentration (EC50) is over 25 µM. As for `Cc1c(NC(=O)c2ccccc2F)cccc1-c1nc2ccccc2s1` [Compound 66, N-(3-Benzothiazol-2-yl-2-methyl-phenyl)-2-fluoro-benzamide], the EC50 is over 25 µM.

The values above are taken from patent publication US8993604B2, “Treatment and prevention of dengue virus infections” (Siga Technologies, Inc., priority 2009, dated 2015).
